Test results from patent publication EP3727043B1 (Golden Gait Biotech, S.L., priority 2017, dated 2019).
Where two headings read alike, the source gives them in different places.

Experiments:
[1] = test system: rats with a unilateral 6-hydroxydopamine lesion; assay: LIDs in rats with a unilateral 6-hydroxydopamine lesion; format: in vivo; settings: parkinsonian rat model of LIDs
β2* nAChR = β2* nAChR (Homo sapiens, UniProt P17787); settings: nAChR subtype: β2; cited from earlier work
α7 nAChR = α7 nAChR (Homo sapiens, UniProt P36544); settings: nAChR subtype: α7; cited from earlier work
Sequence of α7 nAChR (P36544 23-502): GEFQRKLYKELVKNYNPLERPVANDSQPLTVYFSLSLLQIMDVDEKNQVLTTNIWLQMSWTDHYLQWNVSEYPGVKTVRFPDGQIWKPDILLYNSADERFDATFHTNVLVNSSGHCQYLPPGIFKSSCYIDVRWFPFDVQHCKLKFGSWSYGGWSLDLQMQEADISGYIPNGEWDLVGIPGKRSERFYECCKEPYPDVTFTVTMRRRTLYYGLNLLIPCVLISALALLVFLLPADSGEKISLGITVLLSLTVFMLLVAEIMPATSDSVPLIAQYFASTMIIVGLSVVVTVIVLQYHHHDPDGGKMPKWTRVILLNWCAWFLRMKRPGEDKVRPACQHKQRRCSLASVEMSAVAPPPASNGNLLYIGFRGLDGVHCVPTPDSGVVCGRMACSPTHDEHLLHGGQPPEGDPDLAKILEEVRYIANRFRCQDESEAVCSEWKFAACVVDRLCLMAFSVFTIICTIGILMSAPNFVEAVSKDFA

[2] = cited from earlier work
[3] = cited from earlier work; remark: listed apart in the source
[4] = test system: patients with idiopathic PD and levodopa induced dyskinesias (LIDs)
Protocol: At the time the study was performed (2009), there was no FDA accepted instrument for measuring treatment efficacy for LIDs. Therefore, several secondary objectives were utilized to assess efficacy including the Unified Dyskinesia Rating Scale (UDysRS).
A total of 65 male and female subjects with idiopathic PD with LIDs were randomized in the study. The study consisted of 4 phases (FIG. 6A): screening phase (up to 3 weeks), double-blind treatment phase (10 weeks), taper phase (2 weeks), and follow-up phase (2 weeks). The approximate duration of the study for each subject was 17 weeks. […] During the double-blind treatment phase, dosing was begun at Visit 0 at 1 mg every 6 hours (total daily dose [TDD] = 4 mg/day) and escalated upwards at 2-week intervals as follows: 2 mg every 6 hours (TDD = 8 mg/day) at Visit 1 (Week 2); 4 mg every 6 hours (TDD = 16 mg/day) at Visit 2 (Week 4); 6 mg every 6 hours (TDD = 24 mg/day) at Visit 3 (Week 6). Subjects were maintained on 24 mg/day for 4 weeks. The subsequent taper phase (2 weeks total), beginning at Visit 4 (Week 10), consisted of 9 days of drug taper and 5 days off drug prior to Visit 5 (final safety visit). […] Ondansetron was provided by the sponsor and dispensed with each dose escalation step with instructions to use it for nausea and vomiting only during the first 4 days following dose initiation or escalation. […] No other dose down-titration was allowed. Table 5. Dose Escalation Schedule
A total of 65 patients with idiopathic PD and levodopa induced dyskinesias (LIDs) were randomized. Patients were required to have a diagnosis of idiopathic PD and be within a Hoehn & Yahr Stage II - IV while in a peak "ON" state(levodopa in a therapeutic range). They had to have moderate to severely disabling LIDs for at least 25% of the waking day, as determined by Questions 32 and 33 in Part II of the UPDRS and a Mini-Mental State Examination (MMSE) score of ≥26. Patients with atypical Parkinson disorders, prior deep brain stimulation (DBS), unstable angina, a history of ventricular arrhythmias, or active peptic ulcer or a history of schizophrenia, schizoaffective disorder, or bipolar disease were excluded. Patients who actively smoked were also excluded. Table 9: Demographics
The drug, or a placebo identical in appearance and packaging, was administered orally 4 times a day in a blinded fashion. Patients were examined while in an "ON" state, when levodopa was in a therapeutic range. During the treatment phase, dosing was begun at 1 mg every 6 hours (total daily dose=4 mg/day) and escalated upwards at 2-week intervals as follows: 2 mg every 6 hours at Visit 1; 4 mg every 6 hours at Visit 2; 6 mg every 6 hours at Visit 3. Patients were maintained on 24 mg/day for 4 weeks. All patients, study site personnel, raters and the sponsor were blinded to treatment assignment.
The original UPDRS scale was used. […] In the UPDRS Part II, Question 13 is on Falling unrelated to Freezing. […] In Part II, Question 14 is on Freezing when Walking. This is a 5-point item and has two variables freezing and falls. […] Questions 13 and 14 were compared separately (Table 11). […] Table 10: UPDRS Part II (ADL), UPDRS Part III (Motor Examination)
LIDs were assessed by the UDysRS, the main measure of LIDs (Table 12). […] The study was conducted in accordance with the Declaration of Helsinki and Good Clinical Practice Guidelines. All sites received approval from an institutional review board and written informed consent was obtained from each patient prior to participation. Table 12. Unified Dyskinesia Rating Scale (UDysRS)
All hypotheses were tested using 2-sided tests with alpha set at the 0.050 level of significance. In general, efficacy data were summarized by treatment group, and safety data were summarized by treatment group and overall.

[5] = test system: α4β2* nAChR knockout mice
Source text: Multiple receptors exist throughout the body with α1β1*, α3β4* and α7 nAChRs being the major subtypes in the peripheral nervous system and α4β2*, α6β2* and α7 nAChRs the primary ones in the brain. The *asterisk denotes the presence of other nAChR subunits in the receptor.

[6] = test system: patients with idiopathic PD and levodopa induced dyskinesias (LIDs); settings: for worsening of Parkinson symptoms (UPDRS Part III, Hoehn and Yahr scales): during the study
Protocol: Efficacy was measured with the Unified Dyskinesia Rating Scale (UDysRS), a semi- quantitative assessment, FDA-validated instrument to assess gait, balance and dyskinesia in PD. […] Dosing was begun at 1 mg every 6 hours to a final dose of 24 mg per day.
All hypotheses were tested using 2-sided tests with alpha set at the 0.050 level of significance. In general, efficacy data were summarized by treatment group, and safety data were summarized by treatment group and overall. In all analyses, assumptions such as normality and homogeneity of variance were examined prior to conducting the proposed parametric statistical procedures. Categorical variables were analyzed by Fisher's exact 2- tailed test and continuous variables were tested under 2-sample t-tests. The equality of variances was examined using an F-test before applying the 2-sample t-test.

rats and mice = settings: oral application, injection and slow-release minipumps
[7] = in vivo; cited from earlier work
[8] = Phase 2 data used for sample size calculation

Sequence of β2* nAChR (P17787 26-502): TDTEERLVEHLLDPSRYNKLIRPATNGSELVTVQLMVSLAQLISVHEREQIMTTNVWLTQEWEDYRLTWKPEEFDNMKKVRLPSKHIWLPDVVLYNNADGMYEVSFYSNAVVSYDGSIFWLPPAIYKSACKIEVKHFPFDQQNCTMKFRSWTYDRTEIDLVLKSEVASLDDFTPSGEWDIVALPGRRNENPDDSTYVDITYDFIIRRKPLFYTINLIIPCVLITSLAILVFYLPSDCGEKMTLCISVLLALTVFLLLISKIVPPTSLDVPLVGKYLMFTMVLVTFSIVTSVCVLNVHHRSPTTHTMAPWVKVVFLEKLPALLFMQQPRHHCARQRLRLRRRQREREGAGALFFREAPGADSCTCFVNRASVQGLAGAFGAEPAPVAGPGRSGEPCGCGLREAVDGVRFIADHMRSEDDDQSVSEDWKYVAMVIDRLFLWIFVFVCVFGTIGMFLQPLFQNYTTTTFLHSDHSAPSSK

c1cncc(OC[C@@H]2CCN2)c1 [A-85380]
reduction of LIDs [1]: reduced LIDs to varying extents

Cc1ncccc1OC[C@@H]1CCCN1 [ABT-089]
Ki (β2* nAChR): 17 nM

c1cc2cc(-c3ccc(O[C@H]4CN5CCC4CC5)nn3)ccc2[nH]1 [ABT-107]
Ki (α7 nAChR): 0.5 nM

Clc1cc(N2C[C@@H]3CN[C@@H]3C2)cnc1Cl [ABT-894]
Ki (β2* nAChR): 0.3 nM

Cc1ccc(-c2ccc(OC3CN4CCC3CC4)cn2)cc1 (centres unmarked) [AQW051]
Ki (α7 nAChR): 27 nM

O=C(c1ccc(Cl)o1)N1CC2CNCC2C1 (centres unmarked) [AZD 1446]
Ki (β2* nAChR): 30 nM

C[C@@](Cc1ccc(O)c(O)c1)(NN)C(=O)O [Carbidopa, (-)-L-α-hydrazino-α-methyl-β-(3,4-dihydroxybenzene) propanoic acid monohydrate]
solubility in water [2]: slightly soluble in water
reduction of the amount of levodopa required to produce a given response ([3]; in vivo): about 75%

N[C@@H](Cc1ccc(O)c(O)c1)C(=O)O [Levodopa, (S)-2-amino-3-(3,4-dihydroxyphenyl) propanoic acid]
solubility in water [2]: slightly soluble in water
plasma half-life of levodopa ([3]; without carbidopa): 50 min

CN1CCC[C@H]1c1cccnc1 [Nicotine, (S)-3-[1-methylpyrrolidin-2-yl]pyridine, reference compound]
UDysRS part III, Week 10 result; change from baseline, mean [4, 8]: 5.2
UDysRS walking, Week 10 result; change from baseline, mean [4, 8]: 4.4
PGI-C responders (subjects with a score of 1, 2, or 3) ([4]; Visit 4 (Week 10), 21 responders, p = 0.0048 vs placebo): 77.8%
number of LF-ADL responders (subjects with ≥25% reduction from baseline), difference between treatment groups ([4]; Visit 4 (Week 10), p = 0.0453): statistically significant difference
Gait-subtest of the UDysRS versus placebo ([4]; human, in vivo): statistically superior to placebo
patient- and physician-rated assessments of efficacy versus placebo ([4]; human, in vivo): superior to placebo
antidyskinetic effect [5]: did not exert an antidyskinetic effect
worsening of Parkinson symptoms (UPDRS Part III, Hoehn and Yahr scales) [6]: no worsening of Parkinsonian symptoms
worsening of Parkinson symptoms (UPDRS Part III, Hoehn and Yahr scales) ([6]; listed as nicotine): did not cause any worsening of the PD symptoms
subjects who completed the study ([6]; of 35 randomized): 25 subjects
subjects who withdrew because of AEs ([6]; of 35 randomized): 6 subjects
subjects who withdrew because of protocol violations ([6]; of 35 randomized): 2 subjects
subjects who withdrew from the study ([6]; of 35 randomized): 10 subjects
subjects who withdrew because of AEs ([6]; of 35 randomized, listed as nicotine): Six
reduction of LIDs (rats and mice): reduced LIDs
oral bioavailability [7]: approximately 30%

CN[C@@H](C)C/C=C/c1cncc(OC(C)C)c1 [TC-2696]
reduction of LIDs [1]: reduced LIDs to varying extents

c1cnc2cc3c(cc2n1)[C@@H]1CNC[C@H]3C1 [Varenicline]
reduction of LIDs [1]: reduced LIDs to varying extents

OCCCCC#Cc1cncc(OC[C@@H]2CCN2)c1 [sazetidine]
reduction of LIDs [1]: reduced LIDs to varying extents
